Results: patent US4486433A, “Fused-ring amino-pyrazines as bradycardiacs” (Dr. Karl Thomae Gesellschaft mit beschrankter Haftung, priority 1980, dated 1984)

Columns and labels:
Acute toxicity in mice = settings: mouse, in vivo, observation time 14 days
Description: The acute toxicity was determined in mice after oral or intravenous administration. Observation time: 14 days.

[1] = tested on: circulation of intact, anesthetized rats; assay: Effect upon blood pressure and heart rate in intact, anesthetized rats after intravenous injection; type: in vivo; settings: 3 mg/kg i.v.
Description: 1. Effect upon blood pressure and heart rate
The changes in the circulation of intact, anesthetized rats after intravenous injection of the test compound were recorded.
Male laboratory rats having a body weight of 120-360 gm were anesthetized with pentobarbital (70 mgm/kg). The animals breathed spontaneously through a tracheal cannula. The blood pressure was continuously measured in an A. carotis with the aid of an electro-mechanical pressure transducer; the pulse wave triggered a tachograph which continuously recorded the heart rate. Both parameters were plotted on a polygraph. The test compound was injected through a catheter into a V. jugularis.
At a dose of 3 mgm/kg i.v. the test compounds produced an initial increase in the blood pressure of short duration and then a long-lasting decrease in the blood pressure. The decrease in the heart rate was distinct and of long duration.

[2] = tested on: postsynaptic α-adrenoreceptos; assay: Hypertensive activity in the spinal rat; type: in vivo, rats; settings: i.v.
Description: 3. Effect on postsynaptic α-adrenoreceptos: Hypertensive activity in the spinal rat
The increase in blood pressure which occurs upon stimulation of postsynaptic α-adrenoreceptos was measured on the spinal rat model.
Male laboratory rats having a body weight of 200-250 gm were anesthetized (1.2 gm/kg urethane i.p., 1 mgm/kg atropine s/c/). Thereafter, the central spinal cord canal was opened, the spinal cord was severed at C1, and the medulla oblongata and the brain were destroyed with a metal sound. Artificial respiration was applied to the animals, and a polyethylene catheter was tied into a jugular vein. The blood pressure was measured in an A. carotis and continuously recorded by means of a Statham element on a Grass polygraph. The test compound was administered i.v. by way of the catheter.
From the raw data thus obtained, the dose of the test compound which increases the arterial blood pressure by 30 mm Hg (D30) was determined.

[3] = tested on: presynaptic α-adrenoceptors; assay: Inhibition of electrically induced tachycardia in the spinal rat; type: in vivo, rats; settings: i.v.
From the text: There is an auto-regulation system of the noradrenaline release at the adrenergic nerve ends. The stimulation of presynaptic α-adrenoreceptors has an inhibiting effect upon the noradrenaline release and thus a limiting effect upon the adrenergic neurotransmission. Accordingly, upon stimulation of these "feedback receptors", the effect of a given adrenergic stimulation on the […] is reduced.
Male laboratory rats having a body weight of 350-400 gm were anesthetized with pentobarbital (50 mgm/kg i.p.), vagotomized, treated with atropine (1 mgm/kg s.c.), and a tracheal cannula was inserted. After enucleation of an eye, the orbita was punctured, the brain was destroyed, and a metal rod was pushed through the vertebral canal. Artificial respiration was applied to the animals, and they were pre-treated with gallamine (4 mgm/kg i.v.). […] Upon insertion of the rod into the vertebral canal, this uninsulated section is positioned in the area of the last cervical vertebra and the first thoracic vertebra. With the aid of a stimulator a supramaximal stimulus (rectangular impulses 50 V, 2 ms; 0.2 Hz; duration of stimulus 25 sec.) was applied against a counter-electrode inserted into the neck skin.
The blood pressure was measured in an A. carotis by means of an electro-mechanical pressure transducer. […] Both of these signals were recorded on a polygraph.

SMILES | LD50 at 336 h (Acute toxicity in mice; iv) | LD50 at 336 h (Acute toxicity in mice; po) | Blood pressure, depressor phase (maximum value) [1] | Blood pressure, pressor phase (maximum value) [1] | Heart rate reduction (maximum value) [1] | D30 (dose which increases the arterial blood pressure by 30 mm Hg) [2] | D50 (dose which inhibits the electrically induced tachycardia by 50%) [3]
CCN1CCc2ncc(N)nc2CC1.Cl.Cl [A, 7-Ethyl-2-amino-6,7,8,9-tetrahydro-5H-pyrazino[2,3-d]azepine dihydrochloride] | 215 mg/kg | 1250 mg/kg | -20 mm Hg | +61 mm Hg | -116 beats/minute | 480 μgm/kg | 28 μgm/kg
CCN1CCc2nc(N)c(Br)nc2CC1.Cl [Compound D, 7-Ethyl-2-amino-3-bromo-6,7,8,9-tetrahydro-5H-pyrazino[2,3-d]azepine hydrochloride] |  |  | -5 mm Hg | +50 mm Hg | -55 beats/minute |  | 
Cl.Nc1cnc2c(n1)CCN(C1CC1)CC2 [H, 2-Amino-7-cyclopropyl-6,7,8,9-tetrahydro-5H-pyrazino[2,3-d]azepine hydrochloride] |  |  | -28 mm Hg | +51 mm Hg | -110 beats/minute |  | 
CCN1CCc2nc(N)c(Cl)nc2CC1.Cl [E, 7-Ethyl-2-amino-3-chloro-6,7,8,9-tetrahydro-5H-pyrazino[2,3-d]azepine hydrochloride] |  |  | -11 mm Hg | +32 mm Hg | -70 beats/minute |  | 
CN1CCc2ncc(N)nc2CC1.Cl.Cl [C, 2-Amino-6,7,8,9-tetrahydro-7-methyl-5H-pyrazino[2,3-d]azepine dihydrochloride] |  |  | -36 mm Hg | +26 mm Hg | -105 beats/minute |  | 
CCN1CCc2nc(C)c(N)nc2CC1.Cl.Cl [F, 7-Ethyl-2-amino-6,7,8,9-tetrahydro-3-methyl-5H-pyrazino-[2,3-d]azepine dihydrochloride] |  |  | -10 mm Hg | +38 mm Hg | -78 beats/minute |  | 
CCN1CCc2nc(N)cnc2C1.Cl.Cl [G, 6-Ethyl-2-amino-5,6,7,8-tetrahydro-pyrido[3,4-b]pyrazine dihydrochloride] |  |  | -41 mm Hg | +6 mm Hg | -145 beats/minute | 1.4 mgm/kg | 670 μgm/kg
C=CCN1CCc2ncc(N)nc2CC1.Cl.Cl [B, 7-Allyl-2-amino-6,7,8,9-tetrahydro-5H-pyrazino[2,3-d]azepine dihydrochloride] |  |  | -20 mm Hg | +40 mm Hg | -122 beats/minute | 2.6 mgm/kg | 
